O=C1NC(=O)c2cc([N+](=O)[O-])ccc21
solubility (mole fraction)
Details | in chloroform | in cyclohexanone | in ethanol | in ethyl acetate | in isopropanol | in methanol
273.15 K | – | 0.0295 | 0.000713 | 0.00919 | 0.000586 | 0.0014
275.65 K | 0.000577 | 0.0307 | 0.000799 | 0.00981 | 0.000643 | 0.00151
278.15 K | 0.000625 | 0.0321 | 0.000897 | 0.0104 | 0.000741 | 0.00167
283.15 K | 0.000722 | 0.0352 | 0.00112 | 0.0117 | 0.000937 | 0.00196
285.65 K | 0.000775 | 0.0367 | 0.00123 | 0.0123 | 0.00104 | 0.00212
288.15 K | 0.000837 | 0.0387 | 0.00137 | 0.0131 | 0.00115 | 0.00233
293.15 K | 0.000959 | 0.0422 | 0.00166 | 0.0146 | 0.00143 | 0.00272
295.65 K | 0.00102 | 0.044 | 0.00183 | 0.0155 | 0.00159 | 0.00295
298.15 K | 0.00109 | 0.0461 | 0.00201 | 0.0163 | 0.00175 | 0.00318
303.15 K | 0.00124 | 0.0506 | 0.00244 | 0.0181 | 0.00214 | 0.00372
305.65 K | 0.00131 | 0.0527 | 0.00265 | 0.019 | 0.00234 | 0.00397
308.15 K | 0.0014 | 0.0552 | 0.00288 | 0.02 | 0.00257 | 0.00427
313.15 K | 0.0016 | 0.0604 | 0.00347 | 0.022 | 0.00311 | 0.00493
315.65 K | 0.00169 | 0.0629 | 0.00378 | 0.0231 | 0.0034 | 0.00527
318.15 K | 0.00178 | 0.0655 | 0.00405 | 0.0243 | 0.0037 | 0.00566
323.15 K | 0.00201 | 0.0708 | 0.00479 | 0.0266 | 0.00443 | 0.00646
